Data on one substance can be found in US20200283498A1, “T CELL RECEPTOR FUSIONS AND CONJUGATES AND METHODS OF USE THEREOF” (Altor Bioscience LLC, priority 2008, published 2020).

In assay [1] the test system is human PBMCs and purified NK cells. The experiment in a line: In vitro activation of human PBMCs and purified NK cells by ALT-801. Format: cell-based. The following applies: concentrations observed in patients; overnight incubation.
Assay [2] has as its system human NSCLC A549-A2 tumor cells. The experiment in a line: Adoptive transfer of preincubated NK cells in A549-A2 experimental metastasis model. Format: in vivo, athymic nude mice. The settings on record: CTX 200 mg/kg ip days 14, 21; NK cells preincubated with the protein iv days 16, 22 (CTX group: no NK cells).
The next assay concerns immune cells. Type of assay: in vivo, human. The protocol: FIG. 33A is a line graph showing serum IFN-γ levels (determined by ELISA analysis) of subjects following treatment with 0.04 mg/kg ALT-801 (MTD level). FIG. 33B is a line graph showing IFN-γ ELISPOT analysis of PBMCs for subjects treated with 0.04 mg/kg ALT-801 (MTD level). Peripheral blood mononuclear cells (PBMCs) were prepared from samples collected pre-dosing (Cycles 1 & 2) and 2 hours after the drug infusion of dose 3 and 7. Following overnight incubation in medium alone or medium containing ALT-801, p53-positive A375 tumor cells or ALT-801+A375 tumor cells, activated immune effector cells were measured using ELISPOT for IFN-γ production
Based on PK profile, the IL-2 receptors on the surface of immune cells (i.e. NK cells and T-cells) in the patient are anticipated to be fully occupied by the ALT-801 circulating in the patient's serum when a dose of 0.015 mg/kg or higher is administered. […] IFN-γ is produced by activated NK and T-cells and its induction by ALT-801 likely correlates with an increase in effector cell cytolytic activity that plays a role in the antitumor responses. […] Thus the lack of treatment-related TNF-α expression may contribute to the reduced toxicity observed with ALT-801 treatment compared with high-dose IL-2.
The effects of ALT-801 on cell-mediated immune responses were also examined in treated patients. Blood samples were collected from subjects at pre-dosing on the first study drug infusion day and 2 hours after the drug infusion on the third drug infusion day during the first and second treatment cycles. Peripheral blood mononuclear cells (PBMCs) were prepared and incubated overnight in medium alone or medium containing ALT-801, p53-positive A375 tumor cells or ALT-801+A375 tumor cells. Levels of activated immune effector cells were measured using ELISPOT for interferon-gamma (IFN-γ) production. […] These cells were not found in the blood during the treatment cycle (i.e. Dose 3 and Dose 7 samples), consistent with lymphocyte migration to the tumor site. […] Together, these findings indicate that ALT-801 treatment at the MTD level provided favorable pharmacokinetics and immunostimulatory activity necessary for antitumor responses.

Assay [3] deals with metastatic malignancies that express HLA-A2/p53 peptide complexes. The experiment in a line: Phase I/IIa clinical study of ALT-801: tumor assessment (RECIST). Type of assay: in vivo, human. The protocol: FIG. 35 sets forth Table 2 depicting preliminary tumor assessment for evaluable subjects treated with 0.015, 0.04 or 0.08 mg/kg ALT-801. […] For SD (highlighted), change in target lesions compared to baseline is indicated at week 7 or 11 after the first dose.
ALT-801 is currently being evaluated in a multi-course dose-escalation Phase I/IIa clinical study in patients with metastatic malignancies that express HLA-A2/p53 peptide complexes, the antigenic target of ALT-801. The primary endpoints in this dose-escalation study are to evaluate the safety, determine the maximum-tolerated dose (MTD), and characterize the pharmacokinetic profile of ALT-801 administered to patients with progressive metastatic malignancies. Secondary endpoints include evaluation of ALT-801 immunogenicity and assessment of the patient's immune response and anti-tumor response. Each subject enrolled receives up to a total of 8 doses of the study drug in the following schedule: once daily as an intravenous bolus for the first 4 days (cycle 1), followed by a 10-day rest period of no study drug treatment (rest period) and then once daily as an intravenous bolus for an additional 4 days (cycle 2). The trial design includes a dose escalation phase of 3-6 subjects/cohort with starting dose of 0.015 mg/kg (equivalent to approximately 50,000 IL-2 IU/kg) and an expansion phase with 10 additional patients treated at the MTD level. At least 23 patients have been treated with at least one dose of ALT-801 at the 0.015 mg/kg (4 patients), 0.04 mg/kg (13 patients) and 0.08 mg/kg (6 patients).
The effects of ALT-801 on tumors was assessed based on RECIST criteria by comparing baseline (pre-dose) CT scans with those taken in follow-up visits at week 7 and 11.

For the substance “ALT-801: recombinant humanized soluble single-chain TCR-cytokine fusion protein: human TCR β constant domain, murine TCR antigen-binding regions, human IL2; p53 (aa 264-272)/HLA-A2.1 specific”, the “activation of human PBMCs and purified NK cells” value in assay [1] was “able to fully activate human PBMCs and purified NK cells”. The same substance returned a Median survival in assay [2] of 85.5 days. Besides, the “serum IFN-γ induction by dose level” value with immune cells (0.04 mg/kg or 0.08 mg/kg) is on record as “equivalent levels of serum IFN-γ induction that were higher than those observed at the 0.015 mg/kg dose level”. Further, in the assay on immune cells (4-8 hours after dosing, particularly following the fourth dose), the “serum IFN-γ concentrations” value is listed as “increase in serum IFN-γ concentrations”. Further, the “immune cells responsive to ALT-801+A375 tumor cells (ELISPOT)” value with immune cells (Pre-dose Cycle-2 sample) is listed as “increase in immune cells responsive to ALT-801+A375 tumor cells”. Besides, the “IFN-γ-positive cells in blood (ELISPOT)” value in the assay on immune cells (during the 2-cycle course of treatment) is “little or no increase in IFN-γ-positive cells”. Moreover, in assay [3] (11 weeks after treatment), the “patients with stable disease status” value is “approximately 50%”. Moreover, the tumor shrinkage result in assay [3] (cohort 3 subjects with stable disease) is reported as “up to 23%”. In assay [3] (six evaluated subjects), the “subjects with stable disease, cohort 3” value was “four (three with melanoma and one with renal cell carcinoma) of six evaluated subjects of cohort 3 showed stable disease”. In assay [3] (six subjects), the “subjects with stable disease, cohort 2” value was “three (prostate cancer, head and neck cancer and renal cell carcinoma) have achieved stable disease status”. The “change in target lesion LD compared to baseline” value in assay [3] (subject 02004 Metastatic Head and Neck, second course 0.04 mg/kg, over 9 month) is on record as −3.3%.
